From ChEMBL document CHEMBL5678812, “Inhibitors of p21-activated kinases (PAKs)” (J Med Chem, 2015) come the findings set out here.

SMILES strings stand for the structures.

Test [1] concerns the target TGF-beta receptor type-1 (Homo sapiens) (UniProt P36897). As to the kind of experiment: Inhibition of TGFBR1 (unknown origin) at 0.1 uM relative to control.
Test [2] addresses Ephrin type-B receptor 1 (Homo sapiens) (UniProt P54762). As to the kind of experiment: Inhibition of EphB1 (unknown origin) at 0.1 uM relative to control.
Test [3] addresses Tyrosine-protein kinase Lyn (Homo sapiens) (UniProt P07948). Kind of test: Inhibition of LynB (unknown origin) at 0.1 uM relative to control.
Test [4] deals with CDK8/Cyclin C (Homo sapiens) (UniProt P49336+P24863). As to the kind of experiment: Inhibition of CDK8/CyclinC (unknown origin) at 0.1 uM relative to control. In kind it is protein-complex assay.
The target of test [5] is SRSF protein kinase 1 (Homo sapiens) (UniProt Q96SB4). As to the kind of experiment: Inhibition of SRPK1 (unknown origin) at 0.1 uM relative to control.
The target in test [6] is Serine/threonine-protein kinase 25 (Homo sapiens) (UniProt O00506). Kind of test: Inhibition of YSK1 (unknown origin) at 0.1 uM relative to control.
Test [7] addresses Tyrosine-protein kinase CSK (Homo sapiens) (UniProt P41240). As to the kind of experiment: Inhibition of CSK (unknown origin) at 0.1 uM relative to control.
Test [8] deals with Rho-associated protein kinase 2 (Homo sapiens) (UniProt O75116). As to the kind of experiment: Inhibition of ROCK2 (unknown origin) at 0.1 uM relative to control.
Test [9] has as its target Serine/threonine-protein kinase 3 (Homo sapiens) (UniProt Q13188). Kind of test: Inhibition of MST2 (unknown origin) at 0.1 uM relative to control.
The target of test [10] is Serine/threonine-protein kinase PLK2 (Homo sapiens) (UniProt Q9NYY3). As to the kind of experiment: Inhibition of PLK2 (unknown origin) at 0.1 uM relative to control.
Test [11] concerns the target Rho-associated protein kinase 1 (Homo sapiens) (UniProt Q13464). Kind of test: Inhibition of ROCK1 (unknown origin) at 0.1 uM relative to control.
In test [12] the target is Dual specificity protein kinase CLK1 (Homo sapiens) (UniProt P49759). As to the kind of experiment: Inhibition of CLK1 (unknown origin) at 0.1 uM relative to control.
The target in test [13] is Non-receptor tyrosine-protein kinase TYK2 (Homo sapiens) (UniProt P29597). Kind of test: Inhibition of TYK2 (unknown origin) at 0.1 uM relative to control.
Test [14] deals with Dual specificity protein kinase CLK3 (Homo sapiens) (UniProt P49761). As to the kind of experiment: Inhibition of CLK3 (unknown origin) at 0.1 uM relative to control.
For test [15], the target named is Muscle, skeletal receptor tyrosine-protein kinase (Homo sapiens) (UniProt O15146). Kind of test: Inhibition of MUSK (unknown origin) at 0.1 uM relative to control.
The target in test [16] is Tyrosine-protein kinase JAK1 (Homo sapiens) (UniProt P23458). As to the kind of experiment: Inhibition of JAK1 (unknown origin) at 0.1 uM relative to control.
Test [17] deals with Dual specificity tyrosine-phosphorylation-regulated kinase 4 (Homo sapiens) (UniProt Q9NR20). Kind of test: Inhibition of DYRK4 (unknown origin) at 0.1 uM relative to control.
Test [18] concerns the target Calcium/calmodulin-dependent protein kinase type II subunit beta (Homo sapiens) (UniProt Q13554). Kind of test: Inhibition of CaMKIIbeta (unknown origin) at 0.1 uM relative to control.
In test [19] the target is Eukaryotic elongation factor 2 kinase (Homo sapiens) (UniProt O00418). As to the kind of experiment: Inhibition of eEF-2K (unknown origin) at 0.1 uM relative to control.
Test [20] deals with Protein kinase C epsilon type (Homo sapiens) (UniProt Q02156). As to the kind of experiment: Inhibition of PKCepsilon (unknown origin) at 0.1 uM relative to control.
Test [21] deals with Megakaryocyte-associated tyrosine-protein kinase (Homo sapiens) (UniProt P42679). As to the kind of experiment: Inhibition of Hyl (unknown origin) at 0.1 uM relative to control.
In test [22] the target is Serine/threonine-protein kinase Nek2 (Homo sapiens) (UniProt P51955). Kind of test: Inhibition of NEK2 (unknown origin) at 0.1 uM relative to control.
In test [23] the target is Dual specificity tyrosine-phosphorylation-regulated kinase 1B (Homo sapiens) (UniProt Q9Y463). Kind of test: Inhibition of DYRK1B (unknown origin) at 0.1 uM relative to control.
Test [24] has as its target Protein kinase C theta type (Homo sapiens) (UniProt Q04759). As to the kind of experiment: Inhibition of PKCtheta (unknown origin) at 0.1 uM relative to control.
The target of test [25] is PAS domain-containing serine/threonine-protein kinase (Homo sapiens) (UniProt Q96RG2). As to the kind of experiment: Inhibition of PASK (unknown origin) at 0.1 uM relative to control.
For the next test, the species on record is Homo sapiens. As to the kind of experiment: Inhibition of CDK2/cyclinA (unknown origin) at 0.1 uM relative to control.
The target of test [26] is Serine/threonine-protein kinase MRCK alpha (Homo sapiens) (UniProt Q5VT25). Kind of test: Inhibition of MRCKalpha (unknown origin) at 0.1 uM relative to control.
For test [27], the target named is Serine/threonine-protein kinase pim-2 (Homo sapiens) (UniProt Q9P1W9). As to the kind of experiment: Inhibition of PIM2 (unknown origin) at 0.1 uM relative to control.
The target in test [28] is Protein kinase C delta type (Homo sapiens) (UniProt Q05655). As to the kind of experiment: Inhibition of PKCdelta (unknown origin) at 0.1 uM relative to control.
Test [29] deals with DNA-PK/Ku70/Ku85 (Homo sapiens) (UniProt P78527+P12956+P13010). As to the kind of experiment: Inhibition of DNA-PK (unknown origin) at 0.1 uM relative to control. In kind it is protein-complex assay.
Test [30] addresses Maternal embryonic leucine zipper kinase (Homo sapiens) (UniProt Q14680). Kind of test: Inhibition of MELK (unknown origin) at 0.1 uM relative to control.
For test [31], the target named is cGMP-dependent protein kinase 1 (Homo sapiens) (UniProt Q13976). As to the kind of experiment: Inhibition of PKG1alpha (unknown origin) at 0.1 uM relative to control.
Test [32] concerns the target Proto-oncogene tyrosine-protein kinase ROS (Homo sapiens) (UniProt P08922). As to the kind of experiment: Inhibition of Ros (unknown origin) at 0.1 uM relative to control.
Test [33] concerns the target Inhibitor of nuclear factor kappa-B kinase subunit epsilon (Homo sapiens) (UniProt Q14164). Kind of test: Inhibition of IKKepsilon (unknown origin) at 0.1 uM relative to control.
For test [34], the target named is Serine/threonine-protein kinase Nek4 (Homo sapiens) (UniProt P51957). Kind of test: Inhibition of NEK4 (unknown origin) at 0.1 uM relative to control.
In test [35] the target is Serine/threonine-protein kinase Nek6 (Homo sapiens) (UniProt Q9HC98). As to the kind of experiment: Inhibition of NEK6 (unknown origin) at 0.1 uM relative to control.
The target in test [36] is Serine/threonine-protein kinase Sgk1 (Homo sapiens) (UniProt O00141). As to the kind of experiment: Inhibition of SGK1 (unknown origin) at 0.1 uM relative to control.
In test [37] the target is Ribosomal protein S6 kinase alpha-1 (Homo sapiens) (UniProt Q15418). Kind of test: Inhibition of Rsk1 (unknown origin) at 0.1 uM relative to control.
Test [38] concerns the target MAP kinase-activated protein kinase 2 (Homo sapiens) (UniProt P49137). As to the kind of experiment: Inhibition of MAPKAPK2 (unknown origin) at 0.1 uM relative to control.

Chain of TGF-beta receptor type-1 (Homo sapiens) (P36897 whole entry): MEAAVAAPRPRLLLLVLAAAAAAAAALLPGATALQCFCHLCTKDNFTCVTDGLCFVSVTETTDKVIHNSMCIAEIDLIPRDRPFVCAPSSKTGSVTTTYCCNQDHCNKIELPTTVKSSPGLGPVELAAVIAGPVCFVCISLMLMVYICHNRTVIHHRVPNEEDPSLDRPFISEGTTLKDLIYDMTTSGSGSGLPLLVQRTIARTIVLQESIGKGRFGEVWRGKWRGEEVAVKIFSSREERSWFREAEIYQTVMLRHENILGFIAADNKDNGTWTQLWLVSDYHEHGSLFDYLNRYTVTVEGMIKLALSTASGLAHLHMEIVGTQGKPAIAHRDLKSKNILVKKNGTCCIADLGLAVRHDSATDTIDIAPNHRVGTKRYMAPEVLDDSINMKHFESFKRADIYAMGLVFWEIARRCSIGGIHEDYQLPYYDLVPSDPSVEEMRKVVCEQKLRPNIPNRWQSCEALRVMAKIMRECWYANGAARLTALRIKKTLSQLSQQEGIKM
Chain of Serine/threonine-protein kinase PLK2 (Homo sapiens) (Q9NYY3 whole entry, looked up): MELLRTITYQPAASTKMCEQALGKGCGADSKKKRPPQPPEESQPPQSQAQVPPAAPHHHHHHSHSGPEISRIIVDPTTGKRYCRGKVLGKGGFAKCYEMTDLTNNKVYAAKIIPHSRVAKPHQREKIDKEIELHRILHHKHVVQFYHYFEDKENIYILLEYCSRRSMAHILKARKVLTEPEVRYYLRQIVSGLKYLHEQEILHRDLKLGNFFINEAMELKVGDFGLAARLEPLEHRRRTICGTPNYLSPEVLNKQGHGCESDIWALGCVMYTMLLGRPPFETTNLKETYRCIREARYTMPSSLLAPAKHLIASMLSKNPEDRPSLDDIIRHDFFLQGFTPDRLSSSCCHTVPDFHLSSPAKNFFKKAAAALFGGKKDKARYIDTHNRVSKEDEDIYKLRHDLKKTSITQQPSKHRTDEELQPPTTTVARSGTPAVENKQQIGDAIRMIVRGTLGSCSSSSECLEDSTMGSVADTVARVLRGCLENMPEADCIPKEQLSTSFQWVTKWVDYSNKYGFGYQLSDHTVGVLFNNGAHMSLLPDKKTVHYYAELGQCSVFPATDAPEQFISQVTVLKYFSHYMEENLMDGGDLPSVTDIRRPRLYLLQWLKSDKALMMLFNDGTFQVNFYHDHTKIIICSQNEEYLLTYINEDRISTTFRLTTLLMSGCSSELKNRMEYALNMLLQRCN
Chain of Inhibitor of nuclear factor kappa-B kinase subunit epsilon (Homo sapiens) (Q14164 whole entry): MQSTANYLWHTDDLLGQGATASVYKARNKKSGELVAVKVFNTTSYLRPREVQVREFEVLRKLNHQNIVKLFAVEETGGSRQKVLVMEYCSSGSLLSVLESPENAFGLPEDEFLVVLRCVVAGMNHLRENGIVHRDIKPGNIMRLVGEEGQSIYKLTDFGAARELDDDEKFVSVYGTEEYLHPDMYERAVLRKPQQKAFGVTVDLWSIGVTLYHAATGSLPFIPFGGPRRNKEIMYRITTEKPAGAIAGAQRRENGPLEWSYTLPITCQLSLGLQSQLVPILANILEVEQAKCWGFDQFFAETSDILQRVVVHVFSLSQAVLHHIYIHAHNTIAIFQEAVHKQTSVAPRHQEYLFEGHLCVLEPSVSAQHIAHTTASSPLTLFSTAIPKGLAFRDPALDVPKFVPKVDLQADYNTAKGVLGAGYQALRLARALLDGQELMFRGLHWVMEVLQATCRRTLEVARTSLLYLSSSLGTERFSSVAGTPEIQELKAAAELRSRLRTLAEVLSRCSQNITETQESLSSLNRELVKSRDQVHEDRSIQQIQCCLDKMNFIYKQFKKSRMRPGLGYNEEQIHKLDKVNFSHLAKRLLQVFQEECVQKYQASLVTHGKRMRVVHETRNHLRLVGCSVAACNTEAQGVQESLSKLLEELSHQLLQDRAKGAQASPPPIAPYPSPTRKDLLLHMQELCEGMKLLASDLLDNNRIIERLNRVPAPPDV
Chain of Serine/threonine-protein kinase Nek2 (Homo sapiens) (P51955 whole entry): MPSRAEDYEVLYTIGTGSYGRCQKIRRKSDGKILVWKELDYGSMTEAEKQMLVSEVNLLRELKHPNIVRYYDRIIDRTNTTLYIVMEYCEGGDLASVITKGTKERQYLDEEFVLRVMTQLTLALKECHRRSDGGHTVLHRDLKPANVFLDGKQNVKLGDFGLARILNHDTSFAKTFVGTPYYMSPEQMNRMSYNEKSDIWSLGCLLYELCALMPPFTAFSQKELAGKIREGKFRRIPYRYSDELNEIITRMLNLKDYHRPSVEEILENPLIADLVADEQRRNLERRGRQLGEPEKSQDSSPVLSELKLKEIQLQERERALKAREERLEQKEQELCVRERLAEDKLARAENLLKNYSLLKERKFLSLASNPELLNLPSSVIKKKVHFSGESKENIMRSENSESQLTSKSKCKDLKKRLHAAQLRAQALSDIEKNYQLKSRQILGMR
Chain of Megakaryocyte-associated tyrosine-protein kinase (Homo sapiens) (P42679 whole entry): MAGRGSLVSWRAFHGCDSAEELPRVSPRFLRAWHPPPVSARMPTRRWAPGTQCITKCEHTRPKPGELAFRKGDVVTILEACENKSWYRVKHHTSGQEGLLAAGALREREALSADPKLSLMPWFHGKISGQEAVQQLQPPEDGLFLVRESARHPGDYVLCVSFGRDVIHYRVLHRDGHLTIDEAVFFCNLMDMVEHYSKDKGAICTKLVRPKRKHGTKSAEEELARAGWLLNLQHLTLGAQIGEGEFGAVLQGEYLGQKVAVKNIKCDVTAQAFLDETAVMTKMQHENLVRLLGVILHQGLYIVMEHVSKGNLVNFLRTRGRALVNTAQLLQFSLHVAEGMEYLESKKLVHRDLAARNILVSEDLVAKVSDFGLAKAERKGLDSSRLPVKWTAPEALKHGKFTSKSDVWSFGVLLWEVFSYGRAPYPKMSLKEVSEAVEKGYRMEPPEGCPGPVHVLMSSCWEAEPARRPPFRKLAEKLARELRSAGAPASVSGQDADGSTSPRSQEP
Chain of Protein kinase C epsilon type (Homo sapiens) (Q02156 whole entry): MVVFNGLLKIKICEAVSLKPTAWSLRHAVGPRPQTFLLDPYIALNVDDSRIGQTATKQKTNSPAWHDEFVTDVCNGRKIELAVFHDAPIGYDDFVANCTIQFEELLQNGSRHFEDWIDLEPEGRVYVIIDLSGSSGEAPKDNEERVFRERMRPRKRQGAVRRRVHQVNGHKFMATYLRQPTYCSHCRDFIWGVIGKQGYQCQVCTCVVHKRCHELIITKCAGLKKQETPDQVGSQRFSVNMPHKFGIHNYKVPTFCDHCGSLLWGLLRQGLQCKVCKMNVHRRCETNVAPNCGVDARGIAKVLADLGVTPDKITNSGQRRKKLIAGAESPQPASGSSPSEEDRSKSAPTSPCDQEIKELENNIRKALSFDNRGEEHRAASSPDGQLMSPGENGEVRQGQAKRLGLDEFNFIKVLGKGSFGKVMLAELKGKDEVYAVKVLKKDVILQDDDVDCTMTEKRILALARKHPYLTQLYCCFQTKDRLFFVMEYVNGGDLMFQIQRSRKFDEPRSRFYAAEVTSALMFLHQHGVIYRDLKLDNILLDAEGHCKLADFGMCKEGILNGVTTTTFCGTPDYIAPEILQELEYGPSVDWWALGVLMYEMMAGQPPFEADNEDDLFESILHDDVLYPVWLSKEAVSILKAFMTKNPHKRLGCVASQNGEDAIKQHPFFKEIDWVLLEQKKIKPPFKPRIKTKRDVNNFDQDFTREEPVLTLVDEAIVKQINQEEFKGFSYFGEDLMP
Chain of Eukaryotic elongation factor 2 kinase (Homo sapiens) (O00418 whole entry): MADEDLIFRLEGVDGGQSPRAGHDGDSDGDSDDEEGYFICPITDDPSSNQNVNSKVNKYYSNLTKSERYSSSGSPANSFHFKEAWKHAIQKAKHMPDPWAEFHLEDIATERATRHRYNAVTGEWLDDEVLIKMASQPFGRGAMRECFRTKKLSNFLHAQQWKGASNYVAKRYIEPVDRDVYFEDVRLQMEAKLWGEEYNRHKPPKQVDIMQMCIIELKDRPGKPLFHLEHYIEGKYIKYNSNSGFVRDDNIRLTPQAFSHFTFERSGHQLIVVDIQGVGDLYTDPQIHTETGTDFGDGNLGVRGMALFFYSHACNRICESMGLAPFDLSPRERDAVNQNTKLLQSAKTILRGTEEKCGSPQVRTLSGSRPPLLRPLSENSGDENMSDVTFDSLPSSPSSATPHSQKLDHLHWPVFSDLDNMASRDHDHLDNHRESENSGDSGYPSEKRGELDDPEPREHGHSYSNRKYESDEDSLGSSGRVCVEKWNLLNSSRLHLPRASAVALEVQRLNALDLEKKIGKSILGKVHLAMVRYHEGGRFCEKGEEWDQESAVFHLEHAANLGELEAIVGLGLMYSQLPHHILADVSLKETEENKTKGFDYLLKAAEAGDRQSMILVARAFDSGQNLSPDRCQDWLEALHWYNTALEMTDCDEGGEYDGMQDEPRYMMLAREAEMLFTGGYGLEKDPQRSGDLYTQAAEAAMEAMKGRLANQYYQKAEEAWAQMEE
Chain of Serine/threonine-protein kinase pim-2 (Homo sapiens) (Q9P1W9 whole entry, looked up): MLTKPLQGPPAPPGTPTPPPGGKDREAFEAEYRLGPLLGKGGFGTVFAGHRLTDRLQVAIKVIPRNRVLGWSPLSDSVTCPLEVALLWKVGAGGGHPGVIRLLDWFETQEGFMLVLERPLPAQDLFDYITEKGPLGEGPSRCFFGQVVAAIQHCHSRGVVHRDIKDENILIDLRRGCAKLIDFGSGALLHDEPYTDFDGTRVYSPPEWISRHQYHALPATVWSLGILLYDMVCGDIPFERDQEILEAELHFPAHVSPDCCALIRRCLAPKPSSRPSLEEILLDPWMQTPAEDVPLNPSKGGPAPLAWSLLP
Chain of Serine/threonine-protein kinase Nek6 (Homo sapiens) (Q9HC98 whole entry): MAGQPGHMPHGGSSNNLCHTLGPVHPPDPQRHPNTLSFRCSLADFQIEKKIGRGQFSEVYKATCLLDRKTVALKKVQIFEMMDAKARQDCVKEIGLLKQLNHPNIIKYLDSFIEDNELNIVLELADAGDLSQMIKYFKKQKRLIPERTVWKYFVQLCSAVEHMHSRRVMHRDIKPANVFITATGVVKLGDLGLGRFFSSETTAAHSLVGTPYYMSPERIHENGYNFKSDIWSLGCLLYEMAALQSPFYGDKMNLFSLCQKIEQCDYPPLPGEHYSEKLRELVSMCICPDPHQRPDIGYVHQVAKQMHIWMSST

Consider `CN1CCc2cc(-c3cnc4[nH]cc(C(=O)c5ccccc5Cl)c4c3)ccc2C1`, for which the inhibition in [1] was determined as 99.3%; in test [2] it was 93%; in [3] it was 99.8%; in test [4], 57.3%.

For `COCCNc1nc2ccc(C#CC3(O)CCCCC3)cc2n1-c1ccnc(N)n1`, the inhibition in [5] worked out at 5.4%; in test [6] it was 6.5%; in test [7], 9.8%; in test [8] it was 0.5%; in test [9], 8.8%; in test [10], 10.8%. Further, the inhibition is 0.8% in [11]; 11.3% in test [12]; 3.3% in [13]; 8.9% in test [14]; -2.8% in test [15]; 0.1% in test [16]. In addition, the inhibition is -3% in test [17]; 11.7% in test [18]; 4.3% in [19]; 8.3% in test [20]; 6.6% in test [21]; 6.3% in test [22]. For the same compound, the inhibition in test [23] is 0.5%; in test [24] it was 12.3%; in test [25], 15.9%; in the test listed under Homo sapiens, 1.9%; in [26], -2.4%; in [27], 8.4%. The inhibition is 0.5% in test [28]; -6.3% in test [29]; 4.1% in test [30]; 9.3% in test [31]; 6.8% in [32]; 6% in [33]. In addition, the inhibition in [34] turned out to be 2%; in test [35] it was 9.9%; in [36], 4.4%; in [37] it was 6.7%; in test [38], 3.9%.

A word on the inhibition: it is the change of the read-out against control, counted positive when it falls.
